Measurements published in ChEMBL document CHEMBL1126639, “Centrally acting serotonergic and dopaminergic agents. 2. Synthesis and structure-activity relationships of 2,3,3a,4,9,9a-hexahydro-1H-benz[f]indole derivatives” (J Med Chem, 1993).
pKi: −log10 of the molar value.

Columns and labels:
[1] = target: T1, D(2) dopamine receptor (Homo sapiens, UniProt P14416); assay: Binding affinity against [3H]U-86,170-labeled dopamine receptor D2 in cloned CHO cells; type: cell-based
[2] = system: Mus musculus; assay: Ability to stimulate dopaminergic systems by effect on locomotor activity in reserpinized mice when a dose of 0.4 micro mol/kg is administered intraperitoneally; type: functional
[3] = system: Rattus norvegicus; assay: Inhibition of firing rates of dopaminergic neurons in the substantia nigra pars compacta by intravenous injection in rats; type: functional
[4] = system: Rattus norvegicus; assay: Effect on the synthesis rates of serotonin (5-HTP accumulation) in the rat ventral limbic brain region 43.2 umol/kg.; type: functional, Limbic system
[5] = system: Mus musculus; assay: Ability to stimulate dopaminergic systems by effect on locomotor activity in reserpinized mice when a dose of 43 micro mol/kg is administered intraperitoneally; type: functional
[6] = system: Mus musculus; assay: Antagonism of apomorphine for 0-10 minutes in reserpinized mice when a dose of 4.3 micro mol/kg is administered intraperitoneally; type: functional
[7] = system: Mus musculus; assay: Ability to stimulate dopaminergic systems by effect on locomotor activity in reserpinized mice when a dose of 4.3 micro mol/kg is administered intraperitoneally; type: functional
[8] = system: Mus musculus; assay: Antagonism of apomorphine in reserpinized mice when a dose of 0.4 micro mol/kg is administered intraperitoneally; type: functional
[9] = system: Mus musculus; assay: Antagonism of apomorphine in reserpinized mice when a dose of 43 micro mol/kg is administered intraperitoneally; type: functional
[10] = system: Mus musculus; assay: Antagonism of apomorphine in reserpinized mice when a dose of 4.3 micro mol/kg is administered intraperitoneally; type: functional
[11] = system: Mus musculus; assay: Antagonism of apomorphine for 0-10 minutes in reserpinized mice when a dose of 43 micro mol/kg is administered intraperitoneally; type: functional
[12] = system: Rattus norvegicus; assay: Effect on the synthesis rates of dopamine (DOPA accumulation) in the rat ventral limbic brain region at 43.2 uM/kg.; type: functional, Limbic system
[13] = system: Mus musculus; assay: Antagonism of apomorphine for 0-10 minutes in reserpinized mice when a dose of 0.4 micro mol/kg is administered intraperitoneally; type: functional
[14] = system: Mus musculus; assay: Antagonism of apomorphine for 10-20 minutes in reserpinized mice when a dose of 43 micro mol/kg is administered intraperitoneally; type: functional
[15] = system: Mus musculus; assay: Antagonism of apomorphine for 10-20 minutes in reserpinized mice when a dose of 0.4 micro mol/kg is administered intraperitoneally; type: functional
[16] = target: D(2) dopamine receptor (Rattus norvegicus, UniProt P61169); assay: Binding affinity for [3H]raclopride-labeled dopamine receptor D2 in rat striatum; type: tissue-based
[17] = system: Mus musculus; assay: Antagonism of apomorphine for 10-20 minutes in reserpinized mice when a dose of 4.3 micro mol/kg is administered intraperitoneally; type: functional
[18] = system: Mus musculus; assay: Antagonism of apomorphine for 10-20 minutes in reserpinized mice when a dose of 3.7 micro mol/kg is administered intraperitoneally; type: functional
[19] = system: Mus musculus; assay: Ability to stimulate dopaminergic systems by effect on locomotor activity in reserpinized mice when a dose of 37 micro mol/kg is administered intraperitoneally; type: functional
[20] = system: Mus musculus; assay: Antagonism of apomorphine for 0-10 minutes in reserpinized mice when a dose of 37 micro mol/kg is administered intraperitoneally; type: functional
[21] = system: Mus musculus; assay: Antagonism of apomorphine for 10-20 minutes in reserpinized mice when a dose of 37 micro mol/kg is administered intraperitoneally; type: functional
[22] = system: Rattus norvegicus; assay: Effect on the synthesis rates of dopamine (DOPA accumulation) in the rat ventral limbic brain region at 3.7 uM/kg.; type: functional, Limbic system
[23] = organism: Rattus norvegicus; assay: Effect on the synthesis rates of serotonin (5-HTP accumulation) in the rat ventral limbic brain region […].; type: functional, Limbic system
[24] = target: T1, D(2) dopamine receptor; assay: Intrinsic activity from GTP shift using CHO cell membranes expressing dopamine receptor D2; type: functional
[25] = system: Mus musculus; assay: Ability to stimulate dopaminergic systems by effect on locomotor activity in reserpinized mice when a dose of 3.7 micro mol/kg is administered intraperitoneally; type: functional
[26] = system: Mus musculus; assay: Antagonism of apomorphine in reserpinized mice when a dose of 37 micro mol/kg is administered intraperitoneally; type: functional
[27] = system: Mus musculus; assay: Antagonism of apomorphine in reserpinized mice when a dose of 3.7 micro mol/kg is administered intraperitoneally; type: functional
[28] = system: Mus musculus; assay: Antagonism of apomorphine for 0-10 minutes in reserpinized mice when a dose of 3.7 micro mol/kg is administered intraperitoneally; type: functional
[29] = system: Rattus norvegicus; assay: Inhibition of firing rates of dopaminergic neurons in the substantia nigra pars compacta by intravenous injection in rats.; type: functional
[30] = system: Mus musculus; assay: Antagonism of apomorphine in reserpinized mice when a dose of 38 micro mol/kg is administered intraperitoneally; type: functional
[31] = system: Mus musculus; assay: Ability to stimulate dopaminergic systems by effect on locomotor activity in reserpinized mice when a dose of 38 micro mol/kg is administered intraperitoneally; type: functional
[32] = system: Mus musculus; assay: Antagonism of apomorphine for 0-10 minutes in reserpinized mice when a dose of 38 micro mol/kg is administered intraperitoneally; type: functional
[33] = system: Mus musculus; assay: Antagonism of apomorphine for 0-10 minutes in reserpinized mice when a dose of 3.8 micro mol/kg is administered intraperitoneally; type: functional
[34] = system: Rattus norvegicus; assay: Inhibition of firing rates of serotonergic neurons in the dorsal raphe nucleus by intravenous injection in rats; type: functional; details: Rattus norvegicus, Dorsal raphe nucleus, iv; read-out: ED50
[35] = system: Mus musculus; assay: Antagonism of apomorphine for 10-20 minutes in reserpinized mice when a dose of 3.8 micro mol/kg is administered intraperitoneally; type: functional
[36] = system: Mus musculus; assay: Antagonism of apomorphine for 10-20 minutes in reserpinized mice when a dose of 38 micro mol/kg is administered intraperitoneally; type: functional
[37] = system: Mus musculus; assay: Ability to stimulate dopaminergic systems by effect on locomotor activity in reserpinized mice when a dose of 3.8 micro mol/kg is administered intraperitoneally; type: functional
[38] = system: Mus musculus; assay: Antagonism of apomorphine in reserpinized mice when a dose of 3.8 micro mol/kg is administered intraperitoneally; type: functional

T1 sequence (P14416 whole entry): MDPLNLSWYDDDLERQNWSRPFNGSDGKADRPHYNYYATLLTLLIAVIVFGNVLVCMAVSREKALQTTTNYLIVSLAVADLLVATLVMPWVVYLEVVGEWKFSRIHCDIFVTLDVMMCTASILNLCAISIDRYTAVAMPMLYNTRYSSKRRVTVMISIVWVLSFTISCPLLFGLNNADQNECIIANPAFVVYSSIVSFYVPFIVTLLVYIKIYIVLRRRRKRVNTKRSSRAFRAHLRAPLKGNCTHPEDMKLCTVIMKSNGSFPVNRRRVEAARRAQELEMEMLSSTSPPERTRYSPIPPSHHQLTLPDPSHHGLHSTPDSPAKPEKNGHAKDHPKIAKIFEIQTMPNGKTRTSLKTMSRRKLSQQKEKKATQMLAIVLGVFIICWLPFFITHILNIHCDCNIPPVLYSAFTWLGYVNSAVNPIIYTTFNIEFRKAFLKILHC
Sequence of D(2) dopamine receptor (Rattus norvegicus, UniProt P61169) (P61169 whole entry): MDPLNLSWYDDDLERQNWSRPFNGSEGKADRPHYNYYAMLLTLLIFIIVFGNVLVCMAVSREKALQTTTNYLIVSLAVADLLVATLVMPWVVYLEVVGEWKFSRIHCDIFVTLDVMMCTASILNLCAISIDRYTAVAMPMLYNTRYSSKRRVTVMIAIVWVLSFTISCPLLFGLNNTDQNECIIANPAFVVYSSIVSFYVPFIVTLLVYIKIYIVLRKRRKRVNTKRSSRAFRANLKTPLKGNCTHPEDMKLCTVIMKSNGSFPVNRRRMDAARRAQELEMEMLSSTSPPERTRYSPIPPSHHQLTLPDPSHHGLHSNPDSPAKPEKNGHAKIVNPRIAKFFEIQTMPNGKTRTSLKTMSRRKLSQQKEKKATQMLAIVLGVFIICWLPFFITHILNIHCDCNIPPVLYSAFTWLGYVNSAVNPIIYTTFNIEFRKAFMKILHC

Work on `CCCN1CC[C@@H]2Cc3c(O)cccc3C[C@H]21` (racemic) yielded a pKi [1] of 8.62, a Locomotor activity [2] of 423 and an ED50 [3] of 0.003 µmol/kg. It also gave a Control [4] of -4%, a Locomotor activity [5] of 1539 and a Locomotor activity [6] of 46. It also gave a Locomotor activity [7] of 912, a Locomotor activity [8] of 98 and a Locomotor activity [9] of 114. The Locomotor activity [10] was 69, the Locomotor activity [11] was 29 and the Control [12] was -47%. It also gave a Locomotor activity [13] of 41, a Locomotor activity [14] of 23 and a Locomotor activity [15] of 71. The pKi [16] was 7.77 and the Locomotor activity [17] was 38.

With `CCCN1CC[C@H]2Cc3c(O)cccc3C[C@@H]21` the Locomotor activity [18] was 119, the pKi [1] was 6.04 and the Locomotor activity [2] was 45. For the same compound, the ED50 [3] was > 3.73 µmol/kg, the Locomotor activity [19] was 113 and the Locomotor activity [20] was 84. For the same compound, the Locomotor activity [21] was 103, the Locomotor activity [8] was 81 and the Control [22] was 20%. The Control [23] was 12%, the Intrinsic activity [24] was 18% and the Locomotor activity [13] was 121. It also gave a Locomotor activity [25] of 1, a Locomotor activity [26] of 77 and a Locomotor activity [15] of 119. For the same compound, the pKi [16] was < 6.20, the Locomotor activity [27] was 86 and the Locomotor activity [28] was 109. For the same compound, the ED50 [29] was > 3.73 µmol/kg.

Work on `C=CCN1CC[C@@H]2Cc3c(O)cccc3C[C@H]21` (racemic) yielded a pKi [1] of 6.63, a Locomotor activity [30] of 123 and a Locomotor activity [2] of 450. The ED50 [3] was 0.007 µmol/kg, the Locomotor activity [31] was 1783 and the Locomotor activity [32] was 55. The Locomotor activity [33] was 40, the ED50 [34] was 0.35 µmol/kg and the Locomotor activity [8] was 108. The Locomotor activity [35] was 54, the Locomotor activity [36] was 46 and the Locomotor activity [37] was 1409. It also gave a Locomotor activity [13] of 61, a Locomotor activity [38] of 133 and a Locomotor activity [15] of 77. It also gave a pKi [16] of 7.33.
